For 23 compounds, EC50 results are on record in patent US20230295087A1, “AGONISTS OF ROR GAMMAt” (BRISTOL-MYERS SQUIBB COMPANY, priority 2019, published 2023).

Each structure is given as a SMILES string.

The assay concerns the target T1, human RORgT (Homo sapiens, UniProt P51449).
T1 construct: expressed in transfected cells
T1 sequence (P51449 267-516): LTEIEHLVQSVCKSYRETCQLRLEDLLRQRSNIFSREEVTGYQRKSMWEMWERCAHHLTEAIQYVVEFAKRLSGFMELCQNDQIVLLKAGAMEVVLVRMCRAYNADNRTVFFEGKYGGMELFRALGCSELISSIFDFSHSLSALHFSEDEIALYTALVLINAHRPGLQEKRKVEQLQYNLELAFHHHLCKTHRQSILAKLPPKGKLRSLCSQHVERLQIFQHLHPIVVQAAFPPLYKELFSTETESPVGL
The assay can be described thus: RORgT Gal4 Luciferase Reporter Gene Assay. The assay is classed as cell-based. The note with it: engineered Jurkat cells overexpressing RORgT (LBD or full length) fused with Gal4 Luc reporter; 18 hours at 37° C.; luminescence. The method in brief: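 Jurkat cells expressing Gal4 Luc with either RORgT LBD (aa267-516) or full-length human RORgT, 10,000 cells/well, treated with compound (40 µM to 0.67 nM final, 3-fold dilutions) for 18 h at 37° C. Steady-Glo luminescence read; inhibition of constitutive activity as % signal-window reduction relative to a control compound.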
For orientation: EC50 means the concentration that produces a half-maximal response. The low end stands for an effect from little substance, the high end for a need for much substance. As for `NC(=O)N1CCC(C(=O)N2CC[C@@]3(S(=O)(=O)c4ccccc4)c4ccc(OCc5c(F)cccc5Cl)cc4CC[C@@H]23)CC1` [Example 141, 4-[(3aR,9bR)-9b-(benzenesulfonyl)-7-[(2-chloro-6-fluorophenyl)methoxy]-1H,2H,3H,3aH,4H,5H,9bH-benzo[e]indole-3-carbonyl]piperidine-1-carboxamide], it took 10 nM to reach a half-maximal effect (EC50).

Take `CS(=O)(=O)C1CCN(C(=O)N2CC[C@@]3(S(=O)(=O)c4ccccc4)c4ccc(OCc5c(Cl)cccc5Cl)cc4CC[C@@H]23)CC1` [Example 82, 1-[(3aR,9bR)-9b-(benzenesulfonyl)-7-[(2,6-dichlorophenyl)methoxy]-1H,2H,3H,3aH,4H,5H,9bH-benzo[e]indole-3-carbonyl]-4-methanesulfonylpiperidine]: the EC50 was found to be 97 nM. Compared with the last compound, the EC50 is about 9.7-fold higher.

With `O=C(C1CCS(=O)(=O)N1)N1CC[C@@]2(S(=O)(=O)c3ccccc3)c3ccc(OCc4c(Cl)cccc4Cl)cc3CC[C@@H]12` (stereo partly drawn) [Example 63, 3-[(3aR,9bR)-9b-(benzenesulfonyl)-7-[(2,6-dichlorophenyl)methoxy]-1H,2H,3H,3aH,4H,5H,9bH-benzo[e]indole-3-carbonyl]-1λ^6,2-thiazolidine-1,1-dione], the midpoint of the response, the EC50, lay at 62 nM.

For `O=C(C1CCS(=O)(=O)CC1)N1CC[C@@]2(S(=O)(=O)c3ccc(F)cc3)c3ccc(OCc4cc(Cl)ccc4Cl)cc3CC[C@@H]12` [Example 200, 4-[(3aR,9bR)-7-[(2,5-dichlorophenyl)methoxy]-9b-(4-fluorobenzenesulfonyl)-1H,2H,3H,3aH,4H,5H,9bH-benzo[e]indole-3-carbonyl]-1λ^6-thiane-1,1-dione], the half-maximal effective concentration (EC50) amounted to 7.5 nM. This EC50 lies about 8.3-fold lower than the previous one.

Compound `O=C(O)C1CCC(C(=O)N2CC[C@@]3(S(=O)(=O)c4ccccc4)c4ccc(OCc5c(Cl)cccc5Cl)cc4CC[C@@H]23)CC1` (stereo partly drawn) [Example 66, 4-[(3aR,9bR)-9b-(benzenesulfonyl)-7-[(2,6-dichlorophenyl)methoxy]-1H,2H,3H,3aH,4H,5H,9bH-benzo[e]indole-3-carbonyl]cyclohexane-1-carboxylic acid] gave an EC50 of 272 nM. This EC50 lies about 36-fold higher than the previous one.

Compound `NS(=O)(=O)CC(=O)N1CC[C@@]2(S(=O)(=O)c3ccc(F)cc3)c3ccc(OCc4cc(F)c(F)cc4Cl)cc3CC[C@@H]12` [Example 211, 2-[(3aR,9bR)-7-[(2-chloro-4,5-difluorophenyl)methoxy]-9b-(4-fluorobenzenesulfonyl)-1H,2H,3H,3aH,4H,5H,9bH-benzo[e]indol-3-yl]-2-oxoethane-1-sulfonamide] registered an EC50 of 110 nM.

As to `CN1C(=O)CC[C@H]1C(=O)N1CC[C@@]2(S(=O)(=O)c3ccccc3)c3ccc(OCc4c(F)cccc4Cl)cc3CC[C@@H]12` [Example 150, (5S)-5-[(3aR,9bR)-9b-(benzenesulfonyl)-7-[(2-chloro-6-fluorophenyl)methoxy]-1H,2H,3H,3aH,4H,5H,9bH-benzo[e]indole-3-carbonyl]-1-methylpyrrolidin-2-one], the EC50 was found to be 6.1 nM.

Compound `O=C(O)[C@H]1CC[C@H](C(=O)N2CC[C@@]3(S(=O)(=O)c4ccc(F)cc4)c4ccc(OCc5ccccc5)cc4CC[C@@H]23)CC1` [Example 120, (1r,4r)-4-[(3aR,9bR)-7-(benzyloxy)-9b-(4-fluorobenzenesulfonyl)-1H,2H,3H,3aH,4H,5H,9bH-benzo[e]indole-3-carbonyl]cyclohexane-1-carboxylic acid] came in with a concentration giving a half-maximal response (EC50) of 18 nM.

Turning to `O=C(C1CCS(=O)(=O)CC1)N1CC[C@@]2(S(=O)(=O)c3ccc(F)cc3)c3ccc(OCc4c(Cl)cccc4Cl)cc3CC[C@@H]12` [Example 128, 4-[(3aR,9bR)-7-[(2,6-dichlorophenyl)methoxy]-9b-(4-fluorobenzenesulfonyl)-1H,2H,3H,3aH,4H,5H,9bH-benzo[e]indole-3-carbonyl]-1λ^6-thiane-1,1-dione], it took 13 nM to reach a half-maximal effect (EC50).

With `O=C(CC1CCS(=O)(=O)C1)N1CC[C@@]2(S(=O)(=O)c3ccc(F)cc3)c3ccc(OCc4c(F)cccc4C(F)(F)F)cc3CC[C@@H]12` (mixture of isomers) [Example 17], the EC50 worked out at 8.2 nM.

For `O=C(O)[C@H]1CC[C@H](C(=O)N2CC[C@@]3(S(=O)(=O)c4ccc(Cl)cc4)c4ccc(OCc5c(F)cccc5C(F)(F)F)cc4CC[C@@H]23)CC1` [Example 111, (1r,4r)-4-[(3aR,9bR)-9b-(4-chlorobenzenesulfonyl)-7-{[2-fluoro-6-(trifluoromethyl)phenyl]methoxy} -1H,2H,3H,3aH,4H,5H,9bH-benzo[e]indole-3-carbonyl]cyclohexane-1-carboxylic acid], the EC50 came out at 2.7 nM.

The compound `Cc1ccccc1Oc1ccc2c(c1)CC[C@H]1N(C(=O)C3CCS(=O)(=O)CC3)CC[C@@]21S(=O)(=O)c1ccc(F)cc1` [Example 49, 4-[(3aR,9bR)-9b-(4-fluorobenzenesulfonyl)-7-(2-methylphenoxy)-1H,2H,3H,3aH,4H,5H,9bH-benzo[e]indole-3-carbonyl]-1λ^6-thiane-1,1-dione] came in with an EC50 of 1.8 nM.

`O=C1CC[C@@H](C(=O)N2CC[C@@]3(S(=O)(=O)c4ccccc4)c4ccc(OCc5c(F)cccc5Cl)cc4CC[C@@H]23)N1` [Example 138, (5S)-5-[(3aR,9bR)-9b-(benzenesulfonyl)-7-[(2-chloro-6-fluorophenyl)methoxy]-1H,2H,3H,3aH,4H,5H,9bH-benzo[e]indole-3-carbonyl]pyrrolidin-2-one] had an EC50 of 8.8 nM.

The compound `O=C(C1CCS(=O)(=O)CC1)N1CC[C@@]2(S(=O)(=O)c3ccccc3)c3ccc(OCc4cc(Cl)ccc4Cl)cc3CC[C@@H]12` [Example 129, 4-[(3aR,9bR)-9b-(benzenesulfonyl)-7-[(2,5-dichlorophenyl)methoxy]-1H,2H,3H,3aH,4H,5H,9bH-benzo[e]indole-3-carbonyl]-1λ^6-thiane-1,1-dione] showed an EC50 of 17 nM.

Turning to `NC(=O)[C@H]1CC[C@H](C(=O)N2CC[C@@]3(S(=O)(=O)c4ccccc4)c4ccc(OCc5c(Cl)cccc5Cl)cc4CC[C@@H]23)CC1` [Example 106, (1r,4r)-4-[(3aR,9bR)-9b-(benzenesulfonyl)-7-[(2,6-dichlorophenyl)methoxy]-1H,2H,3H,3aH,4H,5H,9bH-benzo[e]indole-3-carbonyl]cyclohexane-1-carboxamide], a half-maximal response (EC50) required 2.8 nM.

For the compound `CC(=O)N1CCC(C(=O)N2CC[C@@]3(S(=O)(=O)c4ccc(F)cc4)c4ccc(OCc5cc(F)ccc5Cl)cc4CC[C@@H]23)CC1` [Example 174, 1-{4-[(3aR,9bR)-7-[(2-chloro-5-fluorophenyl)methoxy]-9b-(4-fluorobenzenesulfonyl)-1H,2H,3H,3aH,4H,5H,9bH-benzo[e]indole-3-carbonyl]piperidin-1-yl}ethan-1-one], the EC50 was 26 nM.

For `O=C(C1CCS(=O)(=O)CC1)N1CC[C@@]2(S(=O)(=O)c3ccc(F)cc3)c3ccc(OCc4cccc(Cl)c4)cc3CC[C@@H]12` [Example 153, 4-[(3aR,9bR)-7-[(3-chlorophenyl)methoxy]-9b-(4-fluorobenzenesulfonyl)-1H,2H,3H,3aH,4H,5H,9bH-benzo[e]indole-3-carbonyl]-1λ^6-thiane-1,1-dione], the EC50 worked out at 14 nM.

For the compound `O=C(O)[C@H]1CC[C@H](C(=O)N2CC[C@@]3(S(=O)(=O)c4ccc(F)cc4)c4ccc(Oc5c(F)cccc5Cl)cc4CC[C@@H]23)CC1` [Example 37, (1r,4r)-4-[(3aR,9bR)-7-(2-chloro-6-fluorophenoxy)-9b-(4-fluorobenzenesulfonyl)-1H,2H,3H,3aH,4H,5H,9bH-benzo[e]indole-3-carbonyl]cyclohexane-1-carboxylic acid], the 50% effective concentration (EC50) came to 3.3 nM.

Take `CS(=O)(=O)CC(=O)N1CC[C@@]2(S(=O)(=O)c3ccc(F)cc3)c3ccc(OCc4cc(Cl)ccc4Cl)cc3CC[C@@H]12` [Example 208, 1-[(3 aR,9bR)-7-[(2,5-dichlorophenyl)methoxy] -9b-(4-fluorobenzenesulfonyl)-1H,2H,3H,3aH,4H,5H,9bH-benzo[e]indol-3-yl]-2-methanesulfonylethan-1-one]: the concentration for a half-maximal effect (EC50) was 162 nM.

For `CC(=O)N1CCC(CN2CC[C@@]3(S(=O)(=O)c4ccc(F)cc4)c4ccc(OCc5c(F)cccc5C(F)(F)F)cc4CC[C@@H]23)CC1` [Example 51, 1-(4-{[(3aR,9bR)-7-{[2-fluoro-6-(trifluoromethyl)phenyl]methoxy} -9b-(4-fluorobenzenesulfonyl)-1H,2H,3H,3aH,4H,5H,9bH-benzo[e]indol-3-yl]methyl}piperidin-1-yl)ethan-1-one], a half-maximal effect (EC50) was put at 32 nM.

`CC(=O)N[C@H]1CC[C@H](C(=O)N2CC[C@@]3(S(=O)(=O)c4ccc(F)cc4)c4ccc(OCc5c(F)cccc5C(F)(F)F)cc4CC[C@@H]23)CC1` [Example 108, N-[(1r,4r)-4-[(3aR,9bR)-7-{[2-fluoro-6-(trifluoromethyl)phenyl]methoxy} -9b-(4-fluorobenzenesulfonyl)-1H,2H,3H,3aH,4H,5H,9bH-benzo[e]indole-3-carbonyl]cyclohexyl]acetamide] yielded an EC50 of 131 nM.

`O=C(Nc1ccnnc1)N1CC[C@@]2(S(=O)(=O)c3ccccc3)c3ccc(OCc4c(Cl)cccc4Cl)cc3CC[C@@H]12` [Example 95, (3aR,9bR)-9b-(benzenesulfonyl)-7-[(2,6-dichlorophenyl)methoxy]-N-(pyridazin-4-yl)-1H,2H,3H,3aH,4H,5H,9bH-benzo[e]indole-3-carboxamide]: a half-maximal effect (EC50) was put at 194 nM.

As for `O=C(CN1CCS(=O)(=O)CC1)N1CC[C@@]2(S(=O)(=O)c3ccc(F)cc3)c3ccc(OCc4cc(F)ccc4Cl)cc3CC[C@@H]12` [Example 180, 4-{2-[(3aR,9bR)-7-[(2-chloro-5-fluorophenyl)methoxy]-9b-(4-fluorobenzenesulfonyl)-1H,2H,3H,3aH,4H,5H,9bH-benzo[e]indol-3-yl]-2-oxoethyl}-1λ^6-thiomorpholine-1,1-dione], the EC50 worked out at 21 nM.
